Results reported in patent US12077503B2, “Substituted cyclic amides and their use as herbicides” (FMC CORPORATION, priority 2015, dated 2024).

What was measured:
Assay type in all cases: in vivo
Kochia (Kochia scoparia) [1] = assay: Test A preemergence; settings: Bassia scoparia, pre-emergence, 240 h, Preemergence
Procedure, shortened: (§1)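 Greenhouse, ~10 d after spray; visual injury vs untreated controls, 0 = no effect, 100 = complete control. Preemergence: directed soil spray over planted seeds. Postemergence: plants 2–10 cm, 1–2 leaf stage. Loam/sand blend. Compound in non-phytotoxic solvent with surfactant.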

[2] = test system: barnyardgrass (Echinochloa crus-galli); assay: Test A preemergence; settings: Echinochloa crus-galli, pre-emergence, 240 h, Preemergence
Procedure, shortened: as §1

[3] = test system: giant foxtail (Setaria faberii); assay: Test A preemergence; settings: Setaria faberi, pre-emergence, 240 h, Preemergence
Procedure, shortened: as §1

[4] = test system: pigweed (Amaranthus retroflexus); assay: Test A preemergence; settings: Amaranthus retroflexus, pre-emergence, 240 h, Preemergence
[5] = test system: ragweed (common ragweed, Ambrosia elatior); assay: Test A preemergence; settings: Ambrosia artemisiifolia, pre-emergence, 240 h, Preemergence
Procedure, shortened: as §1

[6] = test system: ryegrass, Italian (Italian ryegrass, Lolium multiflorum); assay: Test A preemergence; settings: Lolium multiflorum, pre-emergence, 240 h, Preemergence
Procedure, shortened: as §1

[7] = test system: Galium (catchweed bedstraw, Galium aparine); assay: Test A postemergence; settings: Galium, post-emergence, 240 h
Procedure, shortened: as §1

Kochia (Kochia scoparia) [8] = assay: Test A postemergence; settings: Bassia scoparia, post-emergence, 240 h
Procedure, shortened: as §1

[9] = test system: barnyardgrass (Echinochloa crus-galli); assay: Test A postemergence; settings: Echinochloa crus-galli, post-emergence, 240 h
Procedure, shortened: as §1

[10] = test system: blackgrass (Alopecurus myosuroides); assay: Test A postemergence; settings: Alopecurus myosuroides, post-emergence, 240 h
Procedure, shortened: as §1

corn (Zea mays) = assay: Test A postemergence; settings: Zea mays, post-emergence, 240 h
Procedure, shortened: as §1

[11] = test system: giant foxtail (Setaria faberii); assay: Test A postemergence; settings: Setaria faberi, post-emergence, 240 h
Procedure, shortened: as §1

[12] = test system: pigweed (Amaranthus retroflexus); assay: Test A postemergence; settings: Amaranthus retroflexus, post-emergence, 240 h
Procedure, shortened: as §1

[13] = test system: ragweed (common ragweed, Ambrosia elatior); assay: Test A postemergence; settings: Ambrosia artemisiifolia, post-emergence, 240 h
Procedure, shortened: as §1

[14] = test system: ryegrass, Italian (Italian ryegrass, Lolium multiflorum); assay: Test A postemergence; settings: Lolium multiflorum, post-emergence, 240 h
Procedure, shortened: as §1

[15] = test system: wheat (Triticum aestivum); assay: Test A postemergence; settings: Triticum aestivum, post-emergence, 240 h
Procedure, shortened: as §1

[16] = test system: barnyardgrass (Echinochloa crus-galli); assay: Test B flooded paddy test; settings: Echinochloa crus-galli, 250 g ai/ha, Flood; 0 to 100 scale where 0 is no effect and 100 is complete control; read-out: Barnyardgrass plant response rating
Procedure, shortened: (§2)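 Plants at 2-leaf stage flooded to 3 cm above soil, with compounds applied directly to paddy water and that depth maintained. Plants kept in greenhouse 13–15 d. Visual rating versus controls on a 0 (no effect) to 100 (complete control) scale.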

[17] = test system: ducksalad (Heteranthera limosa); assay: Test B flooded paddy test; settings: Heteranthera limosa, 250 g ai/ha, Flood; 0 to 100 scale where 0 is no effect and 100 is complete control; read-out: Ducksalad plant response rating
Procedure, shortened: as §2

rice (Oryra sativa) = assay: Test B flooded paddy test; settings: Oryza sativa, 250 g ai/ha, Flood; 0 to 100 scale where 0 is no effect and 100 is complete control; read-out: Rice plant response rating
Procedure, shortened: as §2

[18] = test system: sedge, umbrella (small-flower umbrella sedge, Cyperus difformis); assay: Test B flooded paddy test; settings: Cyperus difformis, 250 g ai/ha, Flood; 0 to 100 scale where 0 is no effect and 100 is complete control; read-out: Sedge, Umbrella plant response rating
Procedure, shortened: as §2

## CSc1ccccc1NC(=O)[C@H]1C(=O)NC[C@@H]1c1ccc(C(F)(F)F)cn1 [Compound 1050]
Kochia (Kochia scoparia) [1]; 31 g ai/ha, 0 to 100 scale where 0 is no effect and 100 is complete control, read-out: Kochia plant response rating
  pest or weed control at 31 g/ha: 0%
Kochia (Kochia scoparia) [1]; 125 g ai/ha, visual injury rating after approximately 10 d, read-out: Kochia plant response rating (0 to 100 scale, 0 is no effect, 100 is complete control)
  pest or weed control at 125 g/ha: 0%
[2]; 125 g ai/ha, visual injury rating after approximately 10 d, read-out: Barnyardgrass plant response rating (0 to 100 scale, 0 is no effect, 100 is complete control)
  pest or weed control at 125 g/ha: 0%
[2]; 31 g ai/ha, 0 to 100 scale (0 no effect, 100 complete control), read-out: Plant response rating, Barnyardgrass
  pest or weed control at 31 g/ha: 0%
[3]; 125 g ai/ha, visual injury rating after approximately 10 d, read-out: Foxtail, Giant plant response rating (0 to 100 scale, 0 is no effect, 100 is complete control)
  pest or weed control at 125 g/ha: 0%
[3]; 31 g ai/ha, 0 to 100 scale (0 no effect, 100 complete control), read-out: Plant response rating, Foxtail, Giant
  pest or weed control at 31 g/ha: 0%
[4]; 31 g ai/ha, 0 to 100 scale where 0 is no effect and 100 is complete control, read-out: Pigweed plant response rating
  pest or weed control at 31 g/ha: 0%
[4]; 125 g ai/ha, visual injury rating after approximately 10 d, read-out: Pigweed plant response rating (0 to 100 scale, 0 is no effect, 100 is complete control)
  pest or weed control at 125 g/ha: 0%
[5]; 31 g ai/ha, 0 to 100 scale where 0 is no effect and 100 is complete control, read-out: Ragweed plant response rating
  pest or weed control at 31 g/ha: 0%
[5]; 125 g ai/ha, visual injury rating after approximately 10 d, read-out: Ragweed plant response rating (0 to 100 scale, 0 is no effect, 100 is complete control)
  pest or weed control at 125 g/ha: 0%
[6]; 31 g ai/ha, 0 to 100 scale where 0 is no effect and 100 is complete control, read-out: Ryegrass, Italian plant response rating
  pest or weed control at 31 g/ha: 0%
[6]; 125 g ai/ha, visual injury rating after approximately 10 d, read-out: Ryegrass, Italian plant response rating (0 to 100 scale, 0 is no effect, 100 is complete control)
  pest or weed control at 125 g/ha: 0%
[7]; 125 g ai/ha, postemergence, visual injury on 0 to 100 scale (0 no effect, 100 complete control), approx. 10 d, read-out: Galium plant response rating
  pest or weed control at 125 g/ha: 0%
[7]; Postemergence, 31 g ai/ha, visual injury after approx. 10 d, 0 to 100 scale, 0 no effect, 100 complete control, read-out: Plant response rating, Galium
  pest or weed control at 31 g/ha: 0%
Kochia (Kochia scoparia) [8]; 125 g ai/ha, postemergence, visual injury on 0 to 100 scale (0 no effect, 100 complete control), approx. 10 d, read-out: Kochia plant response rating
  pest or weed control at 125 g/ha: 0%
Kochia (Kochia scoparia) [8]; Postemergence, 31 g ai/ha, visual injury after approx. 10 d, 0 to 100 scale, 0 no effect, 100 complete control, read-out: Plant response rating, Kochia
  pest or weed control at 31 g/ha: 0%
[9]; 125 g ai/ha, postemergence, visual injury on 0 to 100 scale (0 no effect, 100 complete control), approx. 10 d, read-out: Barnyardgrass plant response rating
  pest or weed control at 125 g/ha: 0%
[9]; Postemergence, 31 g ai/ha, visual injury after approx. 10 d, 0 to 100 scale, 0 no effect, 100 complete control, read-out: Plant response rating, Barnyardgrass
  pest or weed control at 31 g/ha: 0%
[10]; 125 g ai/ha, postemergence, visual injury on 0 to 100 scale (0 no effect, 100 complete control), approx. 10 d, read-out: Blackgrass plant response rating
  pest or weed control at 125 g/ha: 0%
[10]; Postemergence, 31 g ai/ha, visual injury after approx. 10 d, 0 to 100 scale, 0 no effect, 100 complete control, read-out: Plant response rating, Blackgrass
  pest or weed control at 31 g/ha: 0%
Corn (Zea mays); 125 g ai/ha, postemergence, visual injury on 0 to 100 scale (0 no effect, 100 complete control), approx. 10 d, read-out: Corn plant response rating
  plant injury at 125 g/ha: 0%
Corn (Zea mays); Postemergence, 31 g ai/ha, visual injury after approx. 10 d, 0 to 100 scale, 0 no effect, 100 complete control
  Corn plant response rating (crop injury, 0 = no effect, 100 = complete kill) at 31 g/ha: 0%
[11]; 125 g ai/ha, postemergence, visual injury on 0 to 100 scale (0 no effect, 100 complete control), approx. 10 d, read-out: Foxtail, Giant plant response rating
  pest or weed control at 125 g/ha: 0%
[11]; Postemergence, 31 g ai/ha, visual injury after approx. 10 d, 0 to 100 scale, 0 no effect, 100 complete control, read-out: Plant response rating, Foxtail, Giant
  pest or weed control at 31 g/ha: 0%
[12]; 125 g ai/ha, postemergence, visual injury on 0 to 100 scale (0 no effect, 100 complete control), approx. 10 d, read-out: Pigweed plant response rating
  pest or weed control at 125 g/ha: 0%
[12]; Postemergence, 31 g ai/ha, visual injury after approx. 10 d, 0 to 100 scale, 0 no effect, 100 complete control, read-out: Plant response rating, Pigweed
  pest or weed control at 31 g/ha: 0%
[13]; 125 g ai/ha, postemergence, visual injury on 0 to 100 scale (0 no effect, 100 complete control), approx. 10 d, read-out: Ragweed plant response rating
  pest or weed control at 125 g/ha: 0%
[13]; Postemergence, 31 g ai/ha, visual injury after approx. 10 d, 0 to 100 scale, 0 no effect, 100 complete control, read-out: Plant response rating, Ragweed
  pest or weed control at 31 g/ha: 0%
[14]; 125 g ai/ha, postemergence, visual injury on 0 to 100 scale (0 no effect, 100 complete control), approx. 10 d, read-out: Ryegrass, Italian plant response rating
  pest or weed control at 125 g/ha: 0%
[14]; Postemergence, 31 g ai/ha, visual injury after approx. 10 d, 0 to 100 scale, 0 no effect, 100 complete control, read-out: Plant response rating, Ryegrass, Italian
  pest or weed control at 31 g/ha: 0%
[15]; 125 g ai/ha, postemergence, visual injury on 0 to 100 scale (0 no effect, 100 complete control), approx. 10 d, read-out: Wheat plant response rating
  plant injury at 125 g/ha: 0%
[15]; Postemergence, 31 g ai/ha, visual injury after approx. 10 d, 0 to 100 scale, 0 no effect, 100 complete control, read-out: Plant response rating, Wheat
  plant injury at 31 g/ha: 0%
[16]
  pest or weed control at 250 g/ha: 0%
[17]
  pest or weed control at 250 g/ha: 85%
Rice (Oryra sativa)
  pest or weed control at 250 g/ha: 0%
[18]
  pest or weed control at 250 g/ha: 0%
